This is an account of results in PubChem BioAssay AID1361 (SRMLSC, 2008).

This test can be described thus: blockers of mitochondrial fusion, WT vs mutant – cell-based, chemical genetic, wild-type and mutant, confirmation (AID 1361). Particulars: Cell-based mitochondrial fusion phenotype, imaging.
The mark [1] stands for this setting: mutant cells, measured here: mutant cell line IC50.

A word on the IC50: it is the midpoint of a concentration-inhibition curve.

Calls of active or inactive are those of the source. The rule behind the calls is not given here.

In the case of `CN(c1cccc(NC(=O)Nc2ccc(Cl)cc2)c1)S(C)(=O)=O`, the IC50 by setting is: (WT cells) > 25 µM (inactive); under setting [1], above 25 µM.
For `CC(=O)N1N=C(c2ccc(C)cc2)OC1c1ccc(Br)cc1` (configuration not stated) the same measures were 21 µM and above 25 µM.
In the same order, the values of `Fc1ccc(C(CCCn2nnc(-c3cccnc3)n2)c2ccc(F)cc2)cc1` are 21.9 µM and above 25 µM.
For `O=C(CN1CCc2ccccc2C1)Nc1ccccc1N1CCCCCC1` the same measures were 10.3 µM and above 25 µM.
With `CCC(C)(C)c1ccc(OCC(=O)N(C)C)c(C(C)(C)CC)c1`, the IC50 is, setting by setting: (WT cells) 20.9 µM; under setting [1], above 25 µM.
In the same order, the values of `COC(=O)C1CSc2[nH]c(=O)sc2C1c1ccc(OC)c(OC)c1` (configuration not stated) are > 25 µM (inactive) and above 25 µM.
In the same order, the values of `CCNc1nc(SCCOc2ccc(Cl)cc2Cl)nc(N(C)C)n1` are 8.3 µM and 23.8 µM.
In the case of `CCN(Cc1ccccc1)C(c1cccs1)c1nnnn1C1CCCCC1` (configuration not stated), the IC50 (WT cells) is 8.92 µM and the IC50 under setting [1] was above 25 µM.
In the same order, the values of `COc1ccccc1N1CCN(C(=O)c2oc3cc(C)cc(C)c3c2C)CC1` are 23.9 µM and above 25 µM.
In the same order, the values of `CC(C)CNC(=S)N1CCN(C(c2ccccc2)c2ccccc2)CC1` are 14.7 µM and above 25 µM.
For `OC1(c2cccc(C(F)(F)F)c2)CCN(c2ncnc3c2[nH]c2ccccc23)CC1` the same measures were 18 µM and above 25 µM.
Under setting [1], `CC(C)(C)N=C1NN=C(c2cc3ccccc3o2)CS1` came in with a half-inhibitory concentration (IC50) above 25 µM.
Consider `Cc1ccc(NC(=O)CC2S/C(=N/N=C3\CCCc4ccccc43)NC2=O)cc1` (configuration not stated), for which the IC50 is, setting by setting: (WT cells) 22.2 µM; under setting [1], above 25 µM.
On to `Cc1cc(C)cc(NC(=S)NCCSc2ccc(Cl)cc2)c1`, for which the IC50 (WT cells) is 4.68 µM and the 50% inhibitory concentration (IC50) under setting [1] worked out at 6.34 µM.
For `Cc1ccc(-n2nc3c(c2NC(=O)c2ccc4c(c2)OCO4)CSC3)c(C)c1`, the IC50 is > 25 µM (inactive) (WT cells) and above 25 µM under setting [1].
On to `O=C(Nc1cc(S(=O)(=O)N2CCCCC2)ccc1Cl)c1ccccc1NS(=O)(=O)c1ccc(F)cc1`, for which the IC50 was 23.4 µM (WT cells) and above 25 µM under setting [1].
For `Cc1cc(C)cc(NC(=S)NC2CC3CCC(C2)N3Cc2ccco2)c1` (configuration not stated) the same measures were > 25 µM (inactive) and above 25 µM.
In the same order, the values of `O=c1c2c3c(sc2nc2n1CCC2)CCC3` are > 25 µM (inactive) and above 25 µM.
In the same order, the values of `COc1ccc(-c2[nH]c(-c3cc(OC)c4c(c3)OCO4)nc2-c2ccccc2)cc1` are 12.6 µM and above 25 µM.
Consider `O=C(Oc1cccnc1)c1ccc(Cl)c(Cl)c1`, for which the IC50 was > 25 µM (inactive) (WT cells) and above 25 µM under setting [1].
On to `Oc1ccccc1-c1nc(/C=C/c2ccccc2)nn1-c1ccccc1`, for which the IC50 is 11.2 µM (WT cells) and 15.4 µM under setting [1].
For `Clc1ccc(C2=Nn3c(nnc3-c3cc(-c4ccccc4)n[nH]3)SC2)cc1` the same measures were > 25 µM (inactive) and above 25 µM.
In the same order, the values of `COc1ccc(/C=N/NC(=O)c2ccn[nH]2)cc1COc1ccc(Cl)cc1Cl` are 23 µM and above 25 µM.
In the case of `Cc1c(C)c2cc(Cl)c(O)c(CN3CCCC(C)C3)c2oc1=O` (configuration not stated), the IC50 is, setting by setting: (WT cells) > 25 µM (inactive); under setting [1], above 25 µM.
In the same order, the values of `CCCC/C(C)=C/[C@@H](NP(=O)(c1ccccc1)c1ccccc1)c1ccccc1` are 9.84 µM and above 25 µM.
For `NS(=O)(=O)c1ccc(N2N=C(c3ccccc3)CC2c2ccc(F)cc2)cc1` (configuration not stated) the same measures were 12 µM and above 25 µM.
In the same order, the values of `CCOC(=O)C1=C(C)N=C2SCCC(=O)N2C1c1sccc1C` (configuration not stated) are > 25 µM (inactive) and above 25 µM.
Turning to `COc1ccccc1NC(=O)c1cccc(NC(=O)c2ccco2)c1`, the IC50 by setting is: (WT cells) > 25 µM (inactive); under setting [1], above 25 µM.
Regarding `c1ccc2c(c1)sc1nnnn12`, the IC50 was > 25 µM (inactive) (WT cells) and above 25 µM under setting [1].
In the same order, the values of `CCOC(=O)N1CCN(S(=O)(=O)c2ccc(C)cc2)C1c1ccc(OC)cc1` (configuration not stated) are > 25 µM (inactive) and above 25 µM.
In the same order, the values of `COc1ccc(C(C(=O)Nc2ccc(F)cc2)N(C(=O)Cn2nnc3ccccc32)C2CC2)cc1` (configuration not stated) are > 25 µM (inactive) and above 25 µM.
In the same order, the values of `CSCc1nnc(NC(=O)c2ccc(S(=O)(=O)N(CC(C)C)CC(C)C)cc2)o1` are > 25 µM (inactive) and above 25 µM.
Regarding `Cc1cccc(OCCCC(=O)Nc2ccc3c(c2)OCO3)c1`, the IC50 is, setting by setting: (WT cells) > 25 µM (inactive); under setting [1], above 25 µM.
With `O=C(CNC(=S)N(Cc1ccccc1)Cc1cccs1)NCc1ccc(F)cc1`, the IC50 is, setting by setting: (WT cells) > 25 µM (inactive); under setting [1], above 25 µM.
In the same order, the values of `CN1CCC2(CC1)Nc1nc(SCc3ccc(Cl)cc3)nn1C1=C2CN(C)CC1` are > 25 µM (inactive) and above 25 µM.
For `O=C(CS(=O)(=O)Cc1ccccc1)Nc1cccnc1` the same measures were > 25 µM (inactive) and above 25 µM.
For `O=C(c1ccc2c(c1)OCO2)N(Cc1cccs1)C1(C(=O)NC2CCCCC2)CCCCC1` the same measures were > 25 µM (inactive) and above 25 µM.
As to `CC(C)COC(=O)c1cccc2c1-c1ccccc1/C2=N\O`, the IC50 by setting is: (WT cells) > 25 µM (inactive); under setting [1], above 25 µM.
In the same order, the values of `CC(C)(C)c1ccc(CN2N=C(/C=C/c3ccccc3)CCC2=O)cc1` are 11.3 µM and above 25 µM.
For `O=c1c2ccccc2[nH]c(=S)n1-c1ccc2c(c1)OCO2` the same measures were > 25 µM (inactive) and above 25 µM.
For `Cc1ccc(NCC(=O)N/N=C/c2cc3ccccc3nc2Cl)cc1` the same measures were > 25 µM (inactive) and above 25 µM.
As for `CCCn1nnc(NC(=O)c2ccc(-c3cccc(Cl)c3)o2)n1`, the IC50 was > 25 µM (inactive) (WT cells) and above 25 µM under setting [1].
In the same order, the values of `O=C(Nc1ccccc1Oc1ccccc1)c1cc([N+](=O)[O-])ccc1Cl` are 6.46 µM and 19.6 µM.
As for `COc1ccc(CCN(Cc2cc3cc(C)cc(C)c3nc2Cl)C(=O)C2CC2)cc1`, the IC50 was 7.6 µM (WT cells) and above 25 µM under setting [1].
For `N#Cc1c(NC(=S)NC(=O)C2CCCC2)sc2c1CCCCC2` the same measures were 10.5 µM and above 25 µM.
For `Cn1c(=O)cc(OCCCC(=O)N2CCN(c3ccccc3)CC2)c2ccccc21` the same measures were > 25 µM (inactive) and above 25 µM.
In the same order, the values of `Cc1nnc(SCC(=O)N2c3ccccc3C(C)(c3ccc(Cl)cc3)CC2(C)C)s1` (configuration not stated) are 5.21 µM and above 25 µM.
For `CCOC(=O)C1=C(C)Nc2sc(C(=O)c3ccc(F)cc3)c(N)c2C1c1ccc(C(=O)OC)cc1` (configuration not stated), the IC50 reads like this: (WT cells) 2.57 µM; under setting [1], above 25 µM.
In the same order, the values of `Cc1cc(Nc2ccccc2)c2c([N+](=O)[O-])cc(C)c(C)c2n1` are > 25 µM (inactive) and above 25 µM.
In the same order, the values of `CCCCCOC(=O)c1ccc(NC(=O)c2ccco2)cc1` are 12.4 µM (inactive) and 10.5 µM.
In the same order, the values of `CCN(CC)c1ccc(/C=N/NC(=S)NCc2ccco2)cc1` are 11.6 µM and above 25 µM.
Consider `CCOC(=O)N1CCN(S(=O)(=O)c2ccc(C)c(C)c2)CC1`, for which the IC50 by setting is: (WT cells) > 25 µM (inactive); under setting [1], above 25 µM.
With `COc1ccccc1Nc1ncnc2nc[nH]c12`, the IC50 by setting is: (WT cells) > 25 µM (inactive); under setting [1], above 25 µM.
For `CCOC(=O)c1c(NC(=O)C(C)N2CCN(C(=O)c3ccco3)CC2)sc2c1CCCC2` (configuration not stated) the same measures were 10.9 µM and above 25 µM.
In the same order, the values of `Cc1ccc(NNC(=O)C(O)(c2cccc(C(F)(F)F)c2)c2cccc(C(F)(F)F)c2)cc1` are 22.3 µM and above 25 µM.
For `CC(C)(C)C1CCc2c(sc(NC(=O)CSc3ncn[nH]3)c2C#N)C1` (configuration not stated) the same measures were 15.8 µM and above 25 µM.
With `COc1ccc(OCC(O)CNCc2ccco2)cc1` (configuration not stated), the IC50 (WT cells) was > 25 µM (inactive) and the IC50 under setting [1] is above 25 µM.
For `Cc1cc(C)nc(Nc2ncc(O)n2-c2ccccc2)n1` the same measures were > 25 µM (inactive) and above 25 µM.
For `CC(C)(C)c1ccc(NC(=O)c2ccccc2)c([N+](=O)[O-])c1` the same measures were 24.9 µM (inactive) and above 25 µM.
In the same order, the values of `Nc1[nH]n2c(=O)c3c(nc2c1N=Nc1ccccc1)CCCC3` are > 25 µM (inactive) and above 25 µM.
Consider `CC(C)(C)c1ccc(CNc2ccc([N+](=O)[O-])cn2)cc1`, for which the IC50 was > 25 µM (inactive) (WT cells) and above 25 µM under setting [1].
In the same order, the values of `CCOC(=O)c1c(-c2ccc(OC)cc2)csc1/N=C/C1=C(O)CCCC1=O` are > 25 µM (inactive) and above 25 µM.
For `COc1cc(SC#N)ccc1N=Cc1c(C)[nH]n(-c2ccc(C)cc2)c1=O` the same measures were 17.4 µM and above 25 µM.
For the compound `CCCCCCn1c(N2CCN(c3ccccc3)CC2)nc2c1c(=O)n(C)c(=O)n2C`, the IC50 was 19.9 µM (WT cells) and above 25 µM under setting [1].
For `CCN(CC)c1nc(-c2ccccc2)ncc1S(=O)(=O)c1ccc(C)cc1` the same measures were 11 µM and above 25 µM.
In the same order, the values of `CCCOc1ccc(Cc2c(Cl)nc(SC)nc2N(C)C)cc1` are 9.94 µM and above 25 µM.
In the same order, the values of `CCOC(=O)/C(=C\c1cccnc1)C(=O)c1cc(C(C)=O)c(Nc2ccccc2)s1` are 4.87 µM and above 25 µM.
For `Cc1ccccc1S(=O)(=O)c1c(C)cc(C)n(CC(C)C)c1=O`, the IC50 was > 25 µM (inactive) (WT cells) and above 25 µM under setting [1].
For `CCCn1c2c(c(O)c(C(=O)Nc3nccs3)c1=O)CCCC2` the same measures were 12.7 µM and above 25 µM.
